Measurements published in the supplement of paper PMC10307832.

Legend:
Test in all cases: relative viability (nuclei count vs DMSO), 5 days (fraction); higher = more cells survive
Venetoclax + Foretinib = compound: CC1(C)CCC(CN2CCN(c3ccc(C(=O)NS(=O)(=O)c4ccc(NCC5CCOCC5)c([N+](=O)[O-])c4)c(Oc4cnc5[nH]ccc5c4)c3)CC2)=C(c2ccc(Cl)cc2)C1 [Venetoclax] + COc1cc2c(Oc3ccc(NC(=O)C4(C(=O)Nc5ccc(F)cc5)CC4)cc3F)ccnc2cc1OCCCN1CCOCC1 [Foretinib] (partner 0.25 µM)
Procedure, shortened: (§1)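 After 5 days of treatment, lung cancer cells in 1536-well plates were fixed and stained in a single step (final 0.05% Triton X-100, 1% formaldehyde, 1 ug/ml Hoechst) and their nuclei counted on 4× images. Treatment had been applied by pin tool the day after seeding as one drug alone or as a fixed anchor-drug dose with five library-drug doses (not always all listed) in √10 steps. Relative viability is the nuclei count of treated wells divided by that of vehicle wells, and values are medians of duplicate plates.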

Venetoclax + Crizotinib = compound: CC1(C)CCC(CN2CCN(c3ccc(C(=O)NS(=O)(=O)c4ccc(NCC5CCOCC5)c([N+](=O)[O-])c4)c(Oc4cnc5[nH]ccc5c4)c3)CC2)=C(c2ccc(Cl)cc2)C1 [Venetoclax] + C[C@@H](Oc1cc(-c2cnn(C3CCNCC3)c2)cnc1N)c1c(Cl)ccc(F)c1Cl [Crizotinib] (partner 1 µM)
Procedure, shortened: as §1

Venetoclax + Linsitinib = compound: CC1(C)CCC(CN2CCN(c3ccc(C(=O)NS(=O)(=O)c4ccc(NCC5CCOCC5)c([N+](=O)[O-])c4)c(Oc4cnc5[nH]ccc5c4)c3)CC2)=C(c2ccc(Cl)cc2)C1 [Venetoclax] + C[C@]1(O)C[C@@H](c2nc(-c3ccc4ccc(-c5ccccc5)nc4c3)c3c(N)nccn32)C1 [Linsitinib] (partner 1 µM)
Procedure, shortened: as §1

Selumetinib + Pictilisib = compound: Cn1cnc2c(F)c(Nc3ccc(Br)cc3Cl)c(C(=O)NOCCO)cc21 [Selumetinib] + CS(=O)(=O)N1CCN(Cc2cc3nc(-c4cccc5[nH]ncc45)nc(N4CCOCC4)c3s2)CC1 [Pictilisib] (partner 1 µM)
Procedure, shortened: as §1

Row | Cell Line | relative viability (Venetoclax + Foretinib; first compound 0.01 µM) | relative viability (Venetoclax + Foretinib; first compound 0.03162 µM) | relative viability (Venetoclax + Foretinib; first compound 0.1 µM) | relative viability (Venetoclax + Foretinib; first compound 0.3162 µM) | relative viability (Venetoclax + Foretinib; first compound 1 µM) | relative viability (Venetoclax + Crizotinib; first compound 0.01 µM) | relative viability (Venetoclax + Crizotinib; first compound 0.03162 µM) | relative viability (Venetoclax + Crizotinib; first compound 0.1 µM) | relative viability (Venetoclax + Crizotinib; first compound 0.3162 µM) | relative viability (Venetoclax + Crizotinib; first compound 1 µM) | relative viability (Venetoclax + Linsitinib; first compound 0.01 µM) | relative viability (Venetoclax + Linsitinib; first compound 0.03162 µM) | relative viability (Venetoclax + Linsitinib; first compound 0.1 µM) | relative viability (Venetoclax + Linsitinib; first compound 0.3162 µM) | relative viability (Venetoclax + Linsitinib; first compound 1 µM) | relative viability (Selumetinib + Pictilisib; first compound 0.02 µM) | relative viability (Selumetinib + Pictilisib; first compound 0.06325 µM) | relative viability (Selumetinib + Pictilisib; first compound 0.2 µM) | relative viability (Selumetinib + Pictilisib; first compound 0.6325 µM)
1 | NCI-H1666 | 0.889 | 0.946 | 0.904 | 0.915 | 0.943 | 0.94 | 0.985 | 1.02 | 1 | 0.916 | 0.909 | 0.864 | 0.731 | 0.759 | 0.745 | 0.346 | 0.22 | 0.264 | 0.239
2 | BEN | 0.728 | 0.743 | 0.561 | 0.681 | 0.518 | 0.825 | 0.81 | 0.727 | 0.851 | 0.817 | 0.91 | 0.919 | 0.769 | 0.842 | 0.997 | 0.632 | 0.545 | 0.461 | 0.534
3 | EMC-BAC-2 | 0.994 | 1.03 | 1.12 | 0.986 | 0.978 | 0.687 | 0.774 | 0.779 | 0.775 | 0.71 | 0.789 | 0.834 | 0.816 | 0.814 | 0.787 | 0.556 | 0.53 | 0.523 | 0.492
4 | NCI-H1299 | 1.07 | 1.11 | 1.1 | 1.07 | 1.03 | 0.974 | 0.998 | 0.937 | 0.912 | 0.907 | 0.987 | 1.02 | 1.06 | 0.926 | 0.936 | 0.673 | 0.51 | 0.389 | 0.359
5 | ABC-1 | 0.867 | 1.22 | 0.976 | 0.961 | 0.922 | 0.921 | 0.99 | 1.06 | 1.12 | 1.04 | 0.7 | 0.878 | 0.697 | 0.81 | 0.813 | 0.64 | 0.605 | 0.393 | 0.607
6 | NCI-H2170 | 0.971 | 1.01 | 0.939 | 0.995 | 1 | 1.07 | 1.23 | 1.12 | 1.15 | 1.13 | – | – | – | – | – | 0.27 | 0.306 | 0.276 | 0.249
7 | NCI-H1437 | 1.28 | 1.24 | 1.25 | 1.26 | 1.15 | 0.851 | 0.941 | 0.949 | 0.899 | 0.864 | 0.92 | 1.08 | 0.975 | 0.952 | 0.932 | 0.237 | 0.178 | 0.157 | 0.149
8 | EBC-1 | 0.115 | 0.0897 | 0.09 | 0.0924 | 0.0981 | 0.213 | 0.18 | 0.207 | 0.211 | 0.146 | 0.902 | 0.963 | 0.912 | 0.837 | 0.786 | 0.259 | 0.172 | 0.182 | 0.173
9 | NCI-H3122 | 0.954 | 0.996 | 0.924 | 0.942 | 0.96 | 0.306 | 0.258 | 0.269 | 0.247 | 0.276 | 1.08 | 1.02 | 0.969 | 1.06 | 1.06 | 0.396 | 0.298 | 0.206 | 0.211
10 | NCI-H2023 | 0.813 | 0.924 | 1.14 | 0.84 | 0.653 | 0.541 | 0.737 | 0.721 | 0.552 | 0.53 | 0.685 | 0.636 | 0.657 | 0.682 | 0.678 | 0.211 | 0.186 | 0.198 | 0.223
11 | NCI-H460 | 0.978 | 0.941 | 0.791 | 0.997 | 0.951 | 0.902 | 0.773 | 0.946 | 0.908 | 0.719 | 0.827 | 0.829 | 0.665 | 0.632 | 0.726 | 0.272 | 0.249 | 0.207 | 0.209
12 | PC-3 [JPC-3] | 0.939 | 1.07 | 1.14 | 0.987 | 0.994 | 0.896 | 0.987 | 1.04 | 0.965 | 0.969 | 0.922 | 1.01 | 0.977 | 0.938 | 0.949 | 0.711 | 0.718 | 0.456 | 0.503
13 | HCC-15 | 0.998 | 1.02 | 0.96 | 0.931 | 0.825 | 0.814 | 0.839 | 0.709 | 0.742 | 0.617 | 0.763 | 0.826 | 0.742 | 0.794 | 0.771 | 0.509 | 0.31 | 0.25 | 0.207
14 | NCI-H1650 | 1.12 | 1.11 | 1.13 | 1.2 | 1.07 | 0.831 | 0.986 | – | 0.74 | 0.842 | – | – | – | – | – | 0.53 | 0.44 | 0.524 | 0.525
15 | NCI-H2342 | 1 | 1.23 | 1.03 | 1.01 | 1.13 | – | – | – | – | – | – | – | – | – | – | – | – | – | –
16 | ChaGo-K-1 | 1.02 | 0.944 | 0.889 | 0.916 | 0.949 | 1.1 | 1.27 | – | 1.16 | 1.08 | – | – | – | – | – | 0.619 | 0.838 | 0.55 | 0.824
17 | NCI-H1793 | 0.769 | 0.71 | 0.619 | 0.79 | 0.607 | – | – | – | – | – | 0.905 | 1.04 | 0.692 | 0.818 | 0.778 | 0.288 | 0.286 | 0.314 | 0.28
18 | NCI-H1395 | 1.06 | 1.01 | 1.04 | 1.07 | 0.996 | – | – | – | – | – | 0.951 | 0.996 | 1.04 | 1.25 | 1.11 | 0.598 | 0.577 | 0.569 | 0.639
19 | SW 900 | 0.745 | 1.05 | 0.823 | 0.916 | 1.16 | – | – | – | – | – | – | – | – | – | – | – | – | – | –
